Measured values from ChEMBL document CHEMBL1926670, “1,2-Benzothiazine 1,1-dioxide carboxylate derivatives as novel potent inhibitors of aldose reductase” (Bioorg Med Chem, 2011).

Tests used:
[1] = molecular target: Aldo-keto reductase family 1 member B1 (Rattus norvegicus, UniProt P07943); test: Inhibition of Wistar rat lens ALR2 using D,L-glyceraldehyde as substrate after 10 mins by UV/VIS double spectrophotometric analysis; assay type: tissue-based, Lens of camera-type eye
[2] = molecular target: Aldo-keto reductase family 1 member A1 (Rattus norvegicus, UniProt P51635); test: Inhibition of Wistar rat kidney ALR1 using D-glucuronate as substrate after 10 mins by UV/VIS double spectrophotometric analysis
[3] = molecular target: Aldo-keto reductase family 1 member B1 (Rattus norvegicus) (UniProt P07943); test: Inhibition of Wistar rat lens ALR2 using D,L-glyceraldehyde as substrate at 10 uM after 10 mins by UV/VIS double spectrophotometric analysis; assay type: tissue-based; conditions: Lens of camera-type eye

Aldo-keto reductase family 1 member A1, sequence (P51635 whole entry, looked up): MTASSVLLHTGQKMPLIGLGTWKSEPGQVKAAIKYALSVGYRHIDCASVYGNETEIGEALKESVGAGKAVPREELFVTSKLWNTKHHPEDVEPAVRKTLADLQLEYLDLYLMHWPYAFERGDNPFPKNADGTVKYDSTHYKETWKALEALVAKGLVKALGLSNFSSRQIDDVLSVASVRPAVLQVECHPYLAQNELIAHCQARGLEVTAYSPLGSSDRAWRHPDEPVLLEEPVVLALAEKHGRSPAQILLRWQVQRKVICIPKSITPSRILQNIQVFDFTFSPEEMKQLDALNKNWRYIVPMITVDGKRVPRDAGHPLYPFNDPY

Row | Compound | IC50 [1] | IC50 [2] | inhibition [3]
1 | O=C(O)CC1CN(Cc2cc(F)c(F)cc2F)S(=O)(=O)c2ccccc21 (racemic) | 340 nM | > 10000 nM | 
2 | O=C(O)CC1CN(Cc2ccccc2F)S(=O)(=O)c2ccccc21 (racemic) | 1730 nM |  | 
3 | O=C(O)/C=C1\CN(Cc2ccccc2F)S(=O)(=O)c2ccccc21 (mixture of isomers) | 2130 nM |  | 
4 | O=C(O)CC1CN(Cc2cc(C(F)(F)F)cc(C(F)(F)F)c2)S(=O)(=O)c2ccccc21 (racemic) | 10400 nM |  | 
5 | O=C(O)/C=C1\CN(Cc2ccc(Br)cc2F)S(=O)(=O)c2ccccc21 (mixture of isomers) | 110 nM | > 10000 nM | 

The next lines start with the values.

Row | IC50 [1] | IC50 [2] | inhibition [3] | Compound
6 | 590 nM | > 10000 nM |  | O=C(O)/C=C1\CN(Cc2cc(F)c(F)cc2F)S(=O)(=O)c2ccccc21 (mixture of isomers)
7 | 140 nM | > 10000 nM |  | O=C(O)/C=C1\CN(Cc2cccc([N+](=O)[O-])c2)S(=O)(=O)c2ccccc21 (mixture of isomers)
8 | 6130 nM |  |  | O=C(O)/C=C1\CN(Cc2ccc(C(F)(F)F)cc2)S(=O)(=O)c2ccccc21 (mixture of isomers)
9 | 5300 nM |  |  | O=C(O)CC1CN(Cc2ccc(C(F)(F)F)cc2)S(=O)(=O)c2ccccc21 (racemic)
10 |  |  | 32% | O=C(O)/C=C1\CN(Cc2cc(C(F)(F)F)cc(C(F)(F)F)c2)S(=O)(=O)c2ccccc21 (mixture of isomers)
